IC50 and EC50 data for 8 molecules are collected here from patent publication EP4782453A1 (Beyang Therapeutics Co., Ltd., priority 2023, dated 2025).

The IC50 is the concentration at which inhibition is half-maximal. In general, EC50 refers to the concentration needed to bring the measured effect to its halfway point.

Holding throughout (type): cell-based
One experiment has as its system KG-1a (wild-type MLL). The experiment is described as follows: Inhibition of proliferation of human tumor cells (Alamar Blue, 7 days), KG-1a control cell line. Particulars: 168 h, KG-1a cells (wild-type MLL, control cell line), method calls the value GI50. A digest of the protocol:
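Alamar Blue fluorescence at Day 7, normalised between 0.1% DMSO wells on Day 7 (high) and Day 0 (low), gives GI50. Cells grew with compound at 37°C, 5% CO2; seeding 4,000 cells/well for MV-4-11 and MOLM-13, 3,000 for KG-1a.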

The subject of experiment [1] is MEIS1 gene expression. Description: Inhibition of MEIS1 gene expression in human tumor cells (qRT-PCR), MOLM-13. To be noted: MOLM-13 (carrying MLL-AF9), 48 hours of incubation, relative MEIS1 gene expression vs GAPDH. A digest of the protocol: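 MV-4-11 (MLL-AF4; IMDM, 10% FBS), MOLM-13 (MLL-AF9) and OCI-AML3 (NPM1c) (RPMI-1640, 20% FBS) seeded at 100,000 cells/well and treated 48 h with serially diluted compound. MEIS1 mRNA measured by one-step probe qRT-PCR from total RNA, triplicates, GAPDH primer/probe included; EC50 for inhibition of relative MEIS1 expression.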

The subject of experiment [2] is MEIS1 gene expression. Description: Inhibition of MEIS1 gene expression in human tumor cells (qRT-PCR), OCI-AML3. To be noted: OCI-AML-3, OCI-AML3 (carrying NPM1c), 48 hours of incubation, relative MEIS1 gene expression vs GAPDH. The text has this:
Experimental Example 3: Evaluation of Inhibitory Activity of Compounds Against MEISI Gene Expression in Human Tumor Cells
The effect of test samples on MEIS1 gene expression in vitro cultured human leukemia cells MV-4-11 (carrying MLL-AF4), MOLM-13 (carrying MLL-AF9), and OCI-AML3 (carrying NPM1c) was studied.
• Human acute lymphoblastic leukemia cells MV-4-11, purchased from American Type Culture Collection, Catalog Number: CRL-9591; • Human acute myeloid leukemia cells MOLM-13, purchased from COBIOER BIOSCIENCES CO., LTD, Catalog Number: CBP60678; • Human acute myeloid leukemia cells OCI-AML3, purchased from COBIOER BIOSCIENCES CO., LTD, Catalog Number: CBP60817; • MEIS1 Primer/Probe, purchased from IDT, Catalog Number: 40831613; and • GAPDH Primer/Probe, purchased from IDT, Catalog Number: 22214836.
MV-4-11 cells were cultured in an IMDM medium containing 10% fetal bovine serum, or MOLM-13 and OCI-AML3 cells were cultured in an RPMI-1640 medium containing 20% fetal bovine serum, each supplemented with 100 U·mL^-1 penicillin and 100 µg·mL^-1 streptomycin. These cells were cultured at 37°C with 5% CO2. The suspensions of individual cell lines were prepared in their respective media and seeded into 48-well plates at a density of 100,000 cells/well. On the day of the experiment, a compound stock solution was diluted in a 6-fold gradient using DMSO. Each gradient-diluted stock solution was then further diluted 250-fold with a complete medium to prepare a series of working solutions at different concentrations. Next, 250 µL of working solution (containing the complete medium with a 2-fold serial concentration of the test compound or a positive control compound, or containing a control complete medium) was added to each well. After 48 hours of incubation, cells from the 48-well plate were collected into 1 mL centrifuge tubes, centrifuged at 1000 rpm for 5 minutes, and the complete medium was removed. Cells were washed twice with 1 mL PBS and centrifuged to remove PBS. Total RNA was extracted using the RNeasy Mini Kit (250) (QIAGEN, 74106). The threshold cycle (Ct) value for gene expression was determined using the HiScript II U+ One Step qRT-PCR Probe Kit (Vazyme) (Vazyme, Q223-01), with 3 replicates per sample. The prepared reaction mixture was placed in an ABI 7500 real-time PCR instrument, and the reaction proceeded following the procedures below. [formula]
Next, for the relative MEIS1 gene expression, the concentration (EC50) that inhibits 50% of relative MEIS1 gene expression was calculated using GraphPad Prism 8 software.
(Quantitative PCR measures a nucleic acid by following its amplification.)

With `COC1CCN(CCC[C@H](C(C)C)N2CC(c3cc(-c4ccc(F)cc4C(=O)N4CCOC[C@H]4C)c4c(F)nc(C)n4c3)C2)CC1` [Example 204, (3R)-4-[5-fluoro-2-(1-fluoro-6-{1-[(3R)-6-(4-methoxypiperidin-1-yl)-2-methylhexan-3-yl]azacyclobutan-3-yl}-3-methylimidazo[1,5-a]pyridin-8-yl)benzoyl]-3-methylmorpholine], in the experiment on KG-1a (wild-type MLL), the IC50 was 18000 nM. For the same molecule, the EC50 in the experiment with MEIS1 gene expression [1] was 4.3 nM; in the experiment with MEIS1 gene expression [2], 13 nM.

For the molecule `CC(=O)N1CCC([C@H](C)N2CC(c3cc(-c4ccc(F)cc4C(=O)N4CCOC[C@H]4C)c4c(F)nc(C)n4c3)C2)CC1` [Example 257-2, 1-{4-[(1S)-1-[3-(1-fluoro-8-{4-fluoro-2-[(3R)-3-methylmorpholin-4-carbonyl]phenyl}-3-methylimidazo[1,5-a]pyridin-6-yl)azacyclobutan-1-yl]ethyl]piperidin-1-yl}ethan-1-one], the IC50 in the experiment on KG-1a (wild-type MLL) turned out to be 20000 nM. In addition, the EC50 was determined as 15 nM in the experiment with MEIS1 gene expression [1] and 33 nM in the experiment with MEIS1 gene expression [2].

Consider `COCCN(C)CCC[C@H](C(C)C)N1CC(c2cc(-c3ccc(F)cc3C(=O)N3CCOC[C@H]3C)c3c(F)nc(C)n3c2)C1` [Example 200-1], for which the IC50 in the experiment on KG-1a (wild-type MLL) amounted to 20000 nM. In addition, the EC50 in the experiment with MEIS1 gene expression [1] was determined as 1 nM; in the experiment with MEIS1 gene expression [2] it was 13 nM.

Consider `COC1CCN(CCCC(C(C)C)N2CC(c3cc(-c4ccc(F)cc4C(=O)N4CCOCC4C)c4c(F)nc(C)n4c3)C2)C1` (stereo not drawn) [Example 201-1], for which the IC50 in the experiment on KG-1a (wild-type MLL) came to 20000 nM. Also, the EC50 was 1 nM with MEIS1 gene expression [1] and 2.4 nM in the experiment on MEIS1 gene expression [2].

With `CCN1CCN(CCC[C@H](C(C)C)N2CC(c3cc(-c4ccc(F)cc4C(=O)N4CCOC[C@H]4C)c4c(F)nc(C)n4c3)C2)CC1` [Example 277], the IC50 with KG-1a (wild-type MLL) amounted to 20000 nM. The EC50 in the experiment with MEIS1 gene expression [1] is 3.3 nM; with MEIS1 gene expression [2], 12 nM.

For `Cc1nc(F)c2c(-c3ccc(F)cc3C(=O)N3CCOC[C@H]3C)cc(C3CN([C@H](CCCN4C[C@H]5C[C@@H]4CO5)C(C)C)C3)cn12` [Example 353, (1R,4R)-5-[(4R)-4-[3-(1-fluoro-8-{4-fluoro-2-[(3R)-3-methylmorpholin-4-carbonyl]phenyl}-3-methylimidazo[1,5-a]pyridin-6-yl)azacyclobutan-1-yl]-5-methylhexyl]-2-oxa-5-azabicyclo[2.2.1]heptane], the IC50 in the experiment with KG-1a (wild-type MLL) is over 20000 nM. Moreover, the EC50 amounted to 2.4 nM in the experiment on MEIS1 gene expression [1] and 21 nM in the experiment on MEIS1 gene expression [2].

`Cc1nc(F)c2c(-c3ccc(F)cc3C(=O)N3CCOC[C@H]3C)cc(C3CN([C@H](CCCN4CCN(C)CC4)C(C)C)C3)cn12` [Example 275, (3R)-4-[5-fluoro-2-(1-fluoro-3-methyl-6-{1-[(3R)-2-methyl-6-(4-methylpiperazin-1-yl)hexan-3-yl]azacyclobutan-3-yl}imidazo[1,5-a]pyridin-8-yl)benzoyl]-3-methylmorpholine]: the IC50 in the experiment on KG-1a (wild-type MLL) worked out at 20000 nM. In addition, the EC50 was found to be 7.7 nM in the experiment with MEIS1 gene expression [1] and 16 nM in the experiment with MEIS1 gene expression [2].

For `CC(=O)N1CCN(CCC[C@H](C(C)C)N2CC(c3cc(-c4ccc(F)cc4C(=O)N4CCOC[C@H]4C)c4c(F)nc(C)n4c3)C2)CC1` [Example 265], the IC50 in the experiment with KG-1a (wild-type MLL) amounted to 20000 nM. Also, the results for the EC50 in the experiment on MEIS1 gene expression [1] and with MEIS1 gene expression [2] were 38 nM and 70 nM, respectively.
